According to patent US10647675B2 (priority 2015, dated 2020):
≈ marks a conversion by molar mass, not a printed value.

What was measured:
[1] = test system: Trichophyton rubrum KD-1130; test: Antifungal activity evaluation test: minimum inhibitory concentration (MIC), broth dilution by reference to CLSI M38-A2; type: cell-based; settings: KD1130, read-out: MIC (T. rubrum)
Method in brief: (§1)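 Broth microdilution after CLSI M38-A2: 2-fold DMSO dilution series in MOPS-buffered RPMI 1640 pH 7.0, inoculum 2×10^3 cells/mL final. Incubated 35° C for 4 days; MIC (μg/mL) is lowest concentration giving visually ≥80% growth inhibition versus growth control.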

[2] = test system: Trichophyton mentagrophytes SM-110; test: as above; type: cell-based; settings: SM110, read-out: MIC (T. menta.)
Method in brief: as §1

MIC [1] | MIC [2] | SMILES
1.56 to 6.25 µg/mL (≈ 4.5 to 18 µM) | 1.56 to 6.25 µg/mL (≈ 4.5 to 18 µM) | COc1ccccc1-c1cccnc1Oc1cnc2c(c1)CCCC2=O [I-141, 3-{[3-(2-methoxyphenyl)pyridin-2-yl]oxy}-6,7-dihydroquinolin-8(5H)-one]
≤ 0.1 µg/mL | ≤ 0.1 µg/mL | COc1ccccc1-c1cccnc1Oc1cnc2c(c1)CCCC2(F)F [I-142, 8,8-difluoro-3-{[3-(2-methoxyphenyl)pyridin-2-yl]oxy}-5,6,7,8-tetrahydroquinoline]
0.2 to 0.78 µg/mL (≈ 0.533 to 2.08 µM) | 0.2 to 0.78 µg/mL (≈ 0.533 to 2.08 µM) | COc1ccccc1-c1cccnc1Oc1cnc2c(c1)CCCC2N(C)C (centres unmarked) [I-143, 3-{[3-(2-methoxyphenyl)pyridin-2-yl]oxy}-N,N-dimethyl-5,6,7,8-tetrahydroquinolin-8-amine]
≤ 0.1 µg/mL | ≤ 0.1 µg/mL | COc1ccccc1-c1cccnc1Oc1cnc2c(c1)CCC=C2 [I-144, 3-{[3-(2-methoxyphenyl)pyridin-2-yl]oxy}-5,6-dihydroquinoline]
≤ 0.1 µg/mL | ≤ 0.1 µg/mL | COCC(F)(F)c1ccc(Oc2ncccc2-c2ccccc2OC)cn1 [I-145, 2-{[6-(1,1-difluoro-2-methoxyethyl)pyridin-3-yl]oxy}-3-(2-methoxyphenyl)pyridine]
1.56 to 6.25 µg/mL (≈ 4.2 to 16.8 µM) | 0.2 to 0.78 µg/mL (≈ 0.539 to 2.1 µM) | CNCC(F)(F)c1ccc(Oc2ncccc2-c2ccccc2OC)cn1 [I-146, 2,2-difluoro-2-(5-{[3-(2-methoxyphenyl)pyridin-2-yl]oxy}-pyridin-2-yl)-N-methylethanamine]
0.2 to 0.78 µg/mL (≈ 0.519 to 2.02 µM) | ≤ 0.1 µg/mL | COc1ccccc1-c1cccnc1Oc1ccc(C(F)(F)CN(C)C)nc1 [I-147, 2,2-difluoro-2-(5-{[3-(2-methoxyphenyl)pyridin-2-yl]oxy}-2-yl)-N,N-dimethylethanamine]
0.2 to 0.78 µg/mL (≈ 0.468 to 1.82 µM) | 0.2 to 0.78 µg/mL (≈ 0.468 to 1.82 µM) | COc1ccccc1-c1cccnc1Oc1ccc(C(F)(F)CN2CCOCC2)nc1 [I-148, 4-[2,2-difluoro-2-(5-{[3-(2-methoxyphenyl)pyridin-2-yl]oxy}pyridin-2-yl)-ethyl]morpholine]
0.2 to 0.78 µg/mL (≈ 0.501 to 1.95 µM) | 0.2 to 0.78 µg/mL (≈ 0.501 to 1.95 µM) | CCN(C)CC(F)(F)c1ccc(Oc2ncccc2-c2ccccc2OC)cn1 [I-149, N-ethyl-2,2-difluoro-2-(5-{[3-(2-methoxyphenyl)pyridin-2-yl]oxy}-pyridin-2-yl)-N-methylethanamine]
≤ 0.1 µg/mL | ≤ 0.1 µg/mL | COc1ccccc1-c1cccnc1Oc1ccc(C(F)(F)CN(C)OC)nc1 [I-150, N-[2,2-difluoro-2-(5-{[3-(2-methoxyphenyl)pyridin-2-yl]oxy}pyridin-2-yl)ethyl]-N,O-dimethylhydroxylamine]
0.2 to 0.78 µg/mL (≈ 0.484 to 1.89 µM) | 0.2 to 0.78 µg/mL (≈ 0.484 to 1.89 µM) | COc1ccccc1-c1cccnc1Oc1ccc(C(F)(F)CN(C)C(C)=O)nc1 [I-151, N-[2,2-difluoro-2-(5-{[3-(2-methoxyphenyl)pyridin-2-yl]oxy}-2-yl)-ethyl]-N-methylacetamide]
0.2 to 0.78 µg/mL (≈ 0.466 to 1.82 µM) | 0.2 to 0.78 µg/mL (≈ 0.466 to 1.82 µM) | COC(=O)N(C)CC(F)(F)c1ccc(Oc2ncccc2-c2ccccc2OC)cn1 [I-152, methyl [2,2-difluoro-2-(5-{[3-(2-methoxyphenyl)pyridin-2-yl]oxy}pyridin-2-yl)ethyl](methyl)carbamate]
≤ 0.1 µg/mL | ≤ 0.1 µg/mL | COc1ccccc1-c1cccnc1Oc1ccc(C(F)(F)Cn2cc(C)cn2)nc1 [I-153, 2-{(6-[1,1-difluoro-2-(4-methyl-1H-pyrazol-1-yl)ethyl]pyridin-3-yl}oxy)-3-(2-methoxyphenyl)pyridine]
0.2 to 0.78 µg/mL (≈ 0.531 to 2.07 µM) | 0.2 to 0.78 µg/mL (≈ 0.531 to 2.07 µM) | COc1cc(F)ccc1-c1cccnc1Oc1ccc(C(F)(F)CO)nc1 [I-154, 2,2-difluoro-2-(5-{[3-(4-fluoro-2-methoxyphenyl)pyridin-2-yl]oxy}pyridin-2-yl)-ethanol]
≤ 0.1 µg/mL | ≤ 0.1 µg/mL | CCOCC(F)(F)c1ccc(Oc2ncccc2-c2ccc(F)cc2OC)cn1 [I-155, 2-{[6-(2-ethoxy-1,1-difluoroethyl)pyridin-3-yl]oxy}-3-(4-fluoro-2-methoxyphenyl)pyridine]
≤ 0.1 µg/mL | ≤ 0.1 µg/mL | COc1cc(F)ccc1-c1cccnc1Oc1ccc(C(F)(F)Cn2cccn2)nc1 [I-157, 2-{(6-[1,1-difluoro-2-(1H-pyrazol-1-yl)ethyl]pyridin-3-yl)oxy}-3-(4-fluoro-2-methoxyphenyl)pyridine]
0.2 to 0.78 µg/mL (≈ 0.469 to 1.83 µM) | ≤ 0.1 µg/mL | COc1cc(F)ccc1-c1cccnc1Oc1ccc(C(F)(F)Cn2ccnc2)nc1 [I-158, 2-{(6-[1,1-difluoro-2-(1H-imidazol-1-yl)ethyl]pyridin-3-yl)oxy}-3-(4-fluoro-2-methoxyphenyl)pyridine]
0.2 to 0.78 µg/mL (≈ 0.46 to 1.8 µM) | ≤ 0.1 µg/mL | COCCOCC(F)(F)c1ccc(Oc2ncccc2-c2ccc(F)cc2OC)cn1 [I-159, 2-({6-[1,1-difluoro-2-(2-methoxyethoxy)ethyl]pyridin-3-yl}oxy)-3-(4-fluoro-2-methoxyphenyl)pyridine]
≤ 0.1 µg/mL | ≤ 0.1 µg/mL | C#CCOCC(F)(F)c1ccc(Oc2ncccc2-c2ccccc2OC)cn1 [I-160, 2-({6-[1,1-difluoro-2-(2-propyl-1-yloxy)ethyl]pyridin-3-yl}oxy)-3-(2-methoxyphenyl)pyridine]
≤ 0.1 µg/mL | ≤ 0.1 µg/mL | COCC(F)(F)c1ccc(Oc2ncccc2-c2ccc(F)cc2OC)cn1 [I-161, 2-{[6-(1,1-difluoro-2-methoxyethyl)pyridin-3-yl]oxy}-3-(4-fluoro-2-methoxyphenyl)pyridine]

MIC [1] | MIC [2] | SMILES
≤ 0.1 µg/mL | ≤ 0.1 µg/mL | COCC(F)(F)c1ccc(Oc2ncccc2-c2cc(F)ccc2OC)cn1 [I-162, 2-{[6-(1,1-difluoro-2-methoxyethyl)pyridin-3-yl]oxy}-3-(5-fluoro-2-methoxyphenyl)pyridine]
≤ 0.1 µg/mL | ≤ 0.1 µg/mL | COCC(F)(F)c1ccc(Oc2ncccc2-c2cc(Cl)ccc2OC)cn1 [I-163, 3-(5-chloro-2-methoxyphenyl)-2-{[6-(1,1-difluoro-2-methoxyethyl)pyridin-3-yl]oxy}pyridine]
≤ 0.1 µg/mL | ≤ 0.1 µg/mL | COCC(F)(F)c1ccc(Oc2ncccc2-c2cc(OC)c(F)cc2F)cn1 [I-165, 2-{[6-(1,1-difluoro-2-methoxyethyl)pyridin-3-yl]oxy}-3-(2,4-difluoro-5-methoxyphenyl)pyridine]
≤ 0.1 µg/mL | ≤ 0.1 µg/mL | COCC(F)(F)c1ccc(Oc2ncccc2-c2cccc3c2OCC3)cn1 [I-166, 2-{[6-(1,1-difluoro-2-methoxyethyl)pyridin-3-yl]oxy}-3-(2,3-dihydrobenzofuran-7-yl)pyridine]
0.2 to 0.78 µg/mL (≈ 0.523 to 2.04 µM) | 0.2 to 0.78 µg/mL (≈ 0.523 to 2.04 µM) | COCC(F)(F)c1ccc(Oc2ncccc2-c2cccc3ccnn23)cn1 [I-167, 7-(2-{[6-(1,1-difluoro-2-methoxyethyl)pyridin-3-yl]oxy}pyridin-3-yl)pyrazolo[1,5-a]pyridine]
0.2 to 0.78 µg/mL (≈ 0.507 to 1.98 µM) | 0.2 to 0.78 µg/mL (≈ 0.507 to 1.98 µM) | COCC(F)(F)c1ccc(Oc2ncccc2-c2cccc3nccnc23)cn1 [I-168, 5-(2-{[6-(1,1-difluoro-2-methoxyethyl)pyridin-3-yl]oxy}pyridin-3-yl)quinoxaline]
0.2 to 0.78 µg/mL (≈ 0.508 to 1.98 µM) | 0.2 to 0.78 µg/mL (≈ 0.508 to 1.98 µM) | COCC(F)(F)c1ccc(Oc2ncccc2-c2cccc3cccnc23)cn1 [I-169, 8-(2-{[6-(1,1-difluoro-2-methoxyethyl)pyridin-3-yl]oxy}pyridin-3-yl)quinoline]
0.2 to 0.78 µg/mL (≈ 0.485 to 1.89 µM) | 0.2 to 0.78 µg/mL (≈ 0.485 to 1.89 µM) | COCC(F)(F)c1ccc(Oc2ncccc2-c2cc(F)cc3nccnc23)cn1 [I-170, 5-(2-{[6-(1,1-difluoro-2-methoxyethyl)pyridin-3-yl]oxy}pyridin-3-yl)-7-fluoroquinoxaline]
≤ 0.1 µg/mL | ≤ 0.1 µg/mL | COc1ccccc1-c1cccnc1Oc1ccc(OCc2ccccc2)nc1 [I-171, 2-{[6-(benzyloxy)pyridin-3-yl]oxy}-3-(2-methoxyphenyl)pyridine]
≤ 0.1 µg/mL | ≤ 0.1 µg/mL | COc1ccccc1-c1cccnc1Oc1ccc(OCCc2ccccc2)nc1 [I-173, 3-(2-methoxyphenyl)-2-[(6-phenethoxypyridin-3-yl)oxy]pyridine]
≤ 0.1 µg/mL | ≤ 0.1 µg/mL | COc1ccccc1-c1cccnc1Oc1ccc(OCc2cccnc2)nc1 [I-174, 3-(2-methoxyphenyl)pyridin-2-{[6-(pyridin-3-ylmethoxy)pyridin-3-yl]oxy}pyridine]
0.2 to 0.78 µg/mL (≈ 0.52 to 2.03 µM) | 0.2 to 0.78 µg/mL (≈ 0.52 to 2.03 µM) | COc1ccccc1-c1cccnc1Oc1ccc(COc2ccccc2)nc1 [I-175, 3-(2-methoxyphenyl)-2-{[6-(phenoxymethyl)pyridin-3-yl]oxy}pyridine]
≤ 0.1 µg/mL | ≤ 0.1 µg/mL | COc1ncccc1-c1cccnc1Oc1ccc(OCc2ccccc2)nc1 [I-176, 2-{[6-(benzyloxy)pyridin-3-yl]oxy}-2′-methoxy-3,3′-bipyridine]
≤ 0.1 µg/mL | ≤ 0.1 µg/mL | COc1ccncc1-c1cccnc1Oc1ccc(OCc2ccccc2)nc1 [I-177, 2-{[6-(benzyloxy)pyridin-3-yl]oxy}-4′-methoxy-3,3′-bipyridine]
≤ 0.1 µg/mL | ≤ 0.1 µg/mL | COc1ccccc1-c1cccnc1Oc1cnc(C(F)(F)F)nc1 [I-178]
≤ 0.1 µg/mL | ≤ 0.1 µg/mL | COc1cc(F)ccc1-c1cccnc1Oc1cnc(C(F)(F)F)nc1 [I-179, 5-{[3-(4-fluoro-2-methoxyphenyl)pyridin-2-yl]oxy}-2-(trifluoromethyl)pyrimidine]
≤ 0.1 µg/mL | ≤ 0.1 µg/mL | COc1ncc(Cl)cc1-c1cccnc1Oc1cnc(C(F)(F)F)nc1 [I-180, 5-chloro-2-methoxy-2′-{[2-(trifluoromethyl)pyrimidin-5-yl]oxy}-3,3′-bipyridine]
≤ 0.1 µg/mL | 0.2 to 0.78 µg/mL (≈ 0.503 to 1.96 µM) | COc1ccccc1-c1cccnc1Oc1cnc(C(F)(F)C(F)(F)F)nc1 [I-181, 5-{[3-(2-methoxyphenyl)pyridin-2-yl]oxy}-2-(pentafluoroethyl)pyrimidine]
≤ 0.1 µg/mL | ≤ 0.1 µg/mL | CCCN(C)c1ncc(Oc2ncccc2-c2ccccc2OC)cn1 [I-182, 5-{[3-(2-methoxyphenyl)pyridin-2-yl]oxy}-N-methyl-N-propylpyrimidin-2-amine]
≤ 0.1 µg/mL | ≤ 0.1 µg/mL | CCCN(C)c1ncc(Oc2ncccc2-c2cccnc2OC)cn1 [I-183]
